Reference: ChEMBL document CHEMBL1201862, “PubChem BioAssay data set” (2004)
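All cell lines were grown in 96-well plates and treated with compound for 48 hours. GI50 marks 50% less growth.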 Calls of active or inactive are those of the source. No stated cut-off is given here; in the data, active = GI50 up to about 1.1 µM and inactive = higher.

Key:
Test in all cases: growth of human tumour cells (NCI), 48 h
OVCAR-4 = test system: OVCAR-4
DMS-273 = test system: DMS-273
MOLT-4 = test system: MOLT-4
SF-539 = test system: SF-539
U-251 = test system: U-251
SK-OV-3 = test system: SK-OV-3
HCT-116 = test system: HCT-116
SR = test system: SR
NCI-H226 = test system: NCI-H226
HT-29 = test system: HT-29
HCT-15 = test system: HCT-15
KM12 = test system: KM12
K562 = test system: K562
A549 = test system: A549
SK-MEL-5 = test system: SK-MEL-5
MDA-N = test system: MDA-N
Hs-578T = test system: Hs-578T
MCF7 = test system: MCF7
DU-145 = test system: DU-145
NCI/ADR-RES = test system: NCI/ADR-RES

Structure (SMILES) | GI50 (OVCAR-4) | GI50 (DMS-273) | GI50 (MOLT-4) | GI50 (SF-539) | GI50 (U-251) | GI50 (SK-OV-3) | GI50 (HCT-116) | GI50 (SR) | GI50 (NCI-H226) | GI50 (HT-29) | GI50 (HCT-15) [µM] | GI50 (KM12) | GI50 (K562) | GI50 (A549) | GI50 (SK-MEL-5) | GI50 (MDA-N) | GI50 (Hs-578T) | GI50 (MCF7) | GI50 (DU-145) | GI50 (NCI/ADR-RES)
O=C(Nc1cc(Cl)c(Cl)cc1Cl)C(=O)C(C(=O)c1ccc(Cl)c(Cl)c1)C1OC(=O)c2ccccc21 (centres undefined) | 22.9 µM (inactive) | 16.9 µM (inactive) | 0.187 µM (active) | 2.67 µM (inactive) | 15.3 µM (inactive) | 26.1 µM (inactive) | 15.1 µM (inactive) | 4.39 µM (inactive) | 7.45 µM (inactive) | 18.5 µM (inactive) | 19.6 | 16.6 µM (inactive) | 4.2 µM (inactive) | 28.7 µM (inactive) | – | – | – | – | – | –
CC(C)(C)C1=Nc2c(Br)cc(C(C)(C)C)cc2C(C(F)(F)F)(C(F)(F)F)O1 | > 100 µM (inactive) | 46 µM (inactive) | 45.8 µM (inactive) | 37.8 µM (inactive) | 22.9 µM (inactive) | > 100 µM (inactive) | 41.2 µM (inactive) | 54 µM (inactive) | – | 57.9 µM (inactive) | 43.7 | > 100 µM (inactive) | 39.4 µM (inactive) | 43.4 µM (inactive) | 83.6 µM (inactive) | – | – | – | – | –
COC(=O)C1CCCC2(C1)OCCO2 (centres undefined) | > 100 µM (inactive) | > 100 µM (inactive) | > 100 µM (inactive) | > 100 µM (inactive) | > 100 µM (inactive) | > 100 µM (inactive) | > 100 µM (inactive) | > 100 µM (inactive) | > 100 µM (inactive) | > 100 µM (inactive) | > 100 | > 100 µM (inactive) | > 100 µM (inactive) | > 100 µM (inactive) | > 100 µM (inactive) | – | – | – | – | –
Nc1nc(Cl)cc(NCC(O)CO)n1 (centres undefined) | > 100 µM (inactive) | > 100 µM (inactive) | > 100 µM (inactive) | > 100 µM (inactive) | > 100 µM (inactive) | > 100 µM (inactive) | > 100 µM (inactive) | > 100 µM (inactive) | > 100 µM (inactive) | > 100 µM (inactive) | > 100 | > 100 µM (inactive) | > 100 µM (inactive) | > 100 µM (inactive) | > 100 µM (inactive) | – | – | – | – | –
Cn1cc(C(=O)c2ccccc2)c2ccccc2c1=O | > 100 µM (inactive) | > 100 µM (inactive) | > 100 µM (inactive) | > 100 µM (inactive) | – | > 100 µM (inactive) | > 100 µM (inactive) | > 100 µM (inactive) | – | > 100 µM (inactive) | > 100 | > 100 µM (inactive) | – | > 100 µM (inactive) | > 100 µM (inactive) | – | – | – | – | –
O=C1C=CC(=O)c2ccc(=O)ccc21 | 9.29 µM (inactive) | 25.5 µM (inactive) | 1.87 µM (inactive) | 21.8 µM (inactive) | 16.4 µM (inactive) | 24.1 µM (inactive) | 10.8 µM (inactive) | 2.02 µM (inactive) | 34.8 µM (inactive) | 18.4 µM (inactive) | 17 | 19.1 µM (inactive) | 2.4 µM (inactive) | 30.1 µM (inactive) | 19.7 µM (inactive) | 13.3 µM (inactive) | 36.6 µM (inactive) | 28.8 µM (inactive) | 28.1 µM (inactive) | –
O=C1c2ccccc2C2(O)N(c3ccccc3)C(=S)N(c3ccccc3)C12O (centres undefined) | > 100 µM (inactive) | > 100 µM (inactive) | > 100 µM (inactive) | > 100 µM (inactive) | > 100 µM (inactive) | > 100 µM (inactive) | > 100 µM (inactive) | – | > 100 µM (inactive) | > 100 µM (inactive) | > 100 | > 100 µM (inactive) | > 100 µM (inactive) | > 100 µM (inactive) | > 100 µM (inactive) | – | – | – | – | –
Cc1ccccc1/C=C/C(=O)c1ccccc1 | 13.3 µM (inactive) | 25.8 µM (inactive) | 18.7 µM (inactive) | 15.1 µM (inactive) | 16.8 µM (inactive) | 27.4 µM (inactive) | 15.4 µM (inactive) | 29 µM (inactive) | 20.5 µM (inactive) | 20.1 µM (inactive) | > 10 | 23.3 µM (inactive) | 20.6 µM (inactive) | 22.5 µM (inactive) | > 10 µM (inactive) | – | – | – | – | –
O=C(CC1C(=O)Nc2ccccc2S1(=O)=O)Nc1ccc(Cl)cc1 (centres undefined) | 22.1 µM (inactive) | 13.1 µM (inactive) | 13.5 µM (inactive) | 13.8 µM (inactive) | 16 µM (inactive) | – | 27.7 µM (inactive) | 4.7 µM (inactive) | 32.2 µM (inactive) | 29.9 µM (inactive) | 31.6 | – | 18.2 µM (inactive) | 31.6 µM (inactive) | 21.2 µM (inactive) | – | – | – | – | –
Cc1cc2c(=O)c(C)n[nH]c2c(C#N)c1C | – | > 100 µM (inactive) | > 100 µM (inactive) | > 100 µM (inactive) | > 100 µM (inactive) | > 100 µM (inactive) | > 100 µM (inactive) | > 100 µM (inactive) | > 100 µM (inactive) | > 100 µM (inactive) | > 100 | – | – | > 100 µM (inactive) | – | – | – | – | – | –
CCOC(=O)C1([Se]c2ccccc2)CCCC1=O (centres undefined) | 18.8 µM (inactive) | 14.4 µM (inactive) | 22.3 µM (inactive) | 19.6 µM (inactive) | 9.95 µM (inactive) | > 100 µM (inactive) | 15.5 µM (inactive) | 14 µM (inactive) | 29 µM (inactive) | 37.8 µM (inactive) | 13.2 | 30.9 µM (inactive) | 33.5 µM (inactive) | 32.7 µM (inactive) | 20.1 µM (inactive) | – | – | – | – | –
COC1CC(O)C(OC(=O)c2ccccc2)C(C)O1 (centres undefined) | > 100 µM (inactive) | > 100 µM (inactive) | > 100 µM (inactive) | > 100 µM (inactive) | > 100 µM (inactive) | – | > 100 µM (inactive) | > 100 µM (inactive) | > 100 µM (inactive) | > 100 µM (inactive) | > 100 | > 100 µM (inactive) | > 100 µM (inactive) | > 100 µM (inactive) | > 100 µM (inactive) | – | – | – | – | –
COc1ccc(-c2cc(=O)c3cc(C)c(C)c(C(=O)O)c3o2)cc1 | > 100 µM (inactive) | > 100 µM (inactive) | > 100 µM (inactive) | > 100 µM (inactive) | > 100 µM (inactive) | > 100 µM (inactive) | > 100 µM (inactive) | > 100 µM (inactive) | – | > 100 µM (inactive) | > 100 | > 100 µM (inactive) | > 100 µM (inactive) | > 100 µM (inactive) | – | – | – | – | – | –
CC1(c2cccc(C3CC4(CCC3=O)OCCCCO4)c2)OCCO1 (centres undefined) | > 100 µM (inactive) | > 100 µM (inactive) | > 100 µM (inactive) | > 100 µM (inactive) | > 100 µM (inactive) | > 100 µM (inactive) | > 100 µM (inactive) | – | > 100 µM (inactive) | > 100 µM (inactive) | > 100 | > 100 µM (inactive) | > 100 µM (inactive) | > 100 µM (inactive) | > 100 µM (inactive) | – | – | – | – | –
CN1CCc2cc3c4cc2C1Cc1ccc(cc1)Oc1cc(ccc1O)CC1c2c(cc(O)c(c2O4)O3)CCN1C (centres undefined) | 2.22 µM (inactive) | 1.75 µM (inactive) | 2.03 µM (inactive) | 1.67 µM (inactive) | 1.69 µM (inactive) | 3.1 µM (inactive) | 1.41 µM (inactive) | 3.92 µM (inactive) | 2.07 µM (inactive) | 2.8 µM (inactive) | 1.91 | 1.86 µM (inactive) | 0.9 µM (active) | 2.45 µM (inactive) | 2.39 µM (inactive) | – | – | – | – | –
O=C1CC(c2n[nH]c3ccccc23)C(=O)N1c1ccccc1 (centres undefined) | > 100 µM (inactive) | > 100 µM (inactive) | > 74 µM (inactive) | > 100 µM (inactive) | > 100 µM (inactive) | > 100 µM (inactive) | > 100 µM (inactive) | 36.5 µM (inactive) | > 88.5 µM (inactive) | > 100 µM (inactive) | > 100 | > 100 µM (inactive) | 43.9 µM (inactive) | > 100 µM (inactive) | > 100 µM (inactive) | > 100 µM (inactive) | > 100 µM (inactive) | > 100 µM (inactive) | > 100 µM (inactive) | > 100 µM (inactive)
C=C1C(=O)C23CC1CCC2C12CO[C@@H]4OCC(C)(CC[C@@H]1OC3=O)C42 (some centres undefined) | – | 6.56 µM (inactive) | 3.01 µM (inactive) | 7.14 µM (inactive) | 14 µM (inactive) | 23.3 µM (inactive) | 2.08 µM (inactive) | 1.35 µM (inactive) | 20.7 µM (inactive) | 2.54 µM (inactive) | 2.9 | 5.43 µM (inactive) | 7.69 µM (inactive) | 10.9 µM (inactive) | 14.8 µM (inactive) | – | – | – | – | –
O=C(N/N=C/c1cccc(F)c1)c1ccncc1 | > 10 µM (inactive) | > 100 µM (inactive) | > 100 µM (inactive) | – | > 100 µM (inactive) | > 100 µM (inactive) | > 100 µM (inactive) | > 100 µM (inactive) | 0.056 µM (active) | > 100 µM (inactive) | > 100 | > 100 µM (inactive) | – | > 100 µM (inactive) | > 100 µM (inactive) | – | – | – | – | –
COC(=O)Nc1nc2cc(C(=O)c3cccs3)ccc2[nH]1 [NOCODAZOLE] | 22.3 µM (inactive) | 0.0322 µM (active) | 0.0205 µM (active) | – | 0.0403 µM (active) | 0.0165 µM (active) | 0.0152 µM (active) | – | 0.0625 µM (active) | 0.0142 µM (active) | 0.0198 | 0.0139 µM (active) | < 0.0118 µM (active) | 0.0186 µM (active) | – | 0.0124 µM (active) | – | 0.0422 µM (active) | – | –
